According to ChEMBL document CHEMBL1201862, “PubChem BioAssay data set” (2004):
Activity calls are given as the source filed them.

How the values were obtained:
Nonstructural protein 1 = Nonstructural protein 1 (Influenza A virus, UniProt Q194T2); format: functional, Influenza A virus (A/California/07/2009(H1N1))
MDCK [1] = assay: antiviral activity against H1N1 influenza, dose response, cell-based, strain KY180 (AID 540254); format: functional; details: Canis lupus familiaris
Vero = assay: Vero E6 cell cytotoxicity, dose response, cytotoxicity control (AID 540298); format: functional; details: Chlorocebus sabaeus
MDCK [2] = assay: MDCK cell cytotoxicity, dose response, cytotoxicity control (AID 540296); format: functional; details: Canis lupus familiaris
[3] = molecular target: RNA-editing ligase 1, mitochondrial (Trypanosoma brucei brucei, UniProt P86926); assay: TbREL1 ligase inhibitors, dose response, biochemical, fluorescence, Trypanosoma brucei (AID 1117295); format: functional
Chain of RNA-editing ligase 1, mitochondrial (P86926 whole entry): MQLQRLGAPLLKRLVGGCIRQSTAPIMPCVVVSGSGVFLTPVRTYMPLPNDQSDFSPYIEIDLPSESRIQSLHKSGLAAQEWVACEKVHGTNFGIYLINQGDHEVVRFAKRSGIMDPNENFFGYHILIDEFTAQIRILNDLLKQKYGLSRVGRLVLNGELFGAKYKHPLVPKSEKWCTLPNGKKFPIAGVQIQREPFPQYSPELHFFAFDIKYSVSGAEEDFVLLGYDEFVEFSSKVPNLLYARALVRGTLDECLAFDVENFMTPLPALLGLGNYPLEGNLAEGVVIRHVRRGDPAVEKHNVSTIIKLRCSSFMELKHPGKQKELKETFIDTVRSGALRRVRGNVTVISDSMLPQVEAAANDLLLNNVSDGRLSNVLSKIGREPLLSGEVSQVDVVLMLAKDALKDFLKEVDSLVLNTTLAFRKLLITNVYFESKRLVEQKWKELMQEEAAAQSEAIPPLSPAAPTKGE

[4] = molecular target: Induced myeloid leukemia cell differentiation protein Mcl-1 (Homo sapiens, UniProt Q07820); format: functional
Chain of Induced myeloid leukemia cell differentiation protein Mcl-1 (Q07820 whole entry): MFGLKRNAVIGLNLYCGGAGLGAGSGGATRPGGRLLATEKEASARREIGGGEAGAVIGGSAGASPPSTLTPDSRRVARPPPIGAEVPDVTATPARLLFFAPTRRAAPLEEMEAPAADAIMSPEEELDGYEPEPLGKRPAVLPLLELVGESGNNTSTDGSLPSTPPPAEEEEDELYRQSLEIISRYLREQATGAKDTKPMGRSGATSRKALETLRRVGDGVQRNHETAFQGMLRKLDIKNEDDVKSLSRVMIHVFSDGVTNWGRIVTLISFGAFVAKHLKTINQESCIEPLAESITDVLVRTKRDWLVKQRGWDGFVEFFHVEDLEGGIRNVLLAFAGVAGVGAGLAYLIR

[5] = molecular target: DNA dC->dU-editing enzyme APOBEC-3A (Homo sapiens, UniProt P31941); assay: APOBEC3A DNA deaminase inhibitors, dose response, biochemical (AID 504722); format: functional
Chain of DNA dC->dU-editing enzyme APOBEC-3A (P31941 whole entry): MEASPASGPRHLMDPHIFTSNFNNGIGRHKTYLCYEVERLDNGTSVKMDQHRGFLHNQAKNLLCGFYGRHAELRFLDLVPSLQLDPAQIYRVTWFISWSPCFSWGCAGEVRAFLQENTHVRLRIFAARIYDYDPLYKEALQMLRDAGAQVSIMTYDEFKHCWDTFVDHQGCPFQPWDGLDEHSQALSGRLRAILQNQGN

[6] = molecular target: DNA dC->dU-editing enzyme APOBEC-3G (Homo sapiens, UniProt Q9HC16); assay: Dose Response confirmation of small molecule APOBEC3G DNA Deaminase Inhibitors via a fluorescence-based single-stranded DNA deaminase assay. [Related pubchem assays (depositor defined):AID493012, AID493028]; format: functional
Chain of DNA dC->dU-editing enzyme APOBEC-3G (Q9HC16 whole entry): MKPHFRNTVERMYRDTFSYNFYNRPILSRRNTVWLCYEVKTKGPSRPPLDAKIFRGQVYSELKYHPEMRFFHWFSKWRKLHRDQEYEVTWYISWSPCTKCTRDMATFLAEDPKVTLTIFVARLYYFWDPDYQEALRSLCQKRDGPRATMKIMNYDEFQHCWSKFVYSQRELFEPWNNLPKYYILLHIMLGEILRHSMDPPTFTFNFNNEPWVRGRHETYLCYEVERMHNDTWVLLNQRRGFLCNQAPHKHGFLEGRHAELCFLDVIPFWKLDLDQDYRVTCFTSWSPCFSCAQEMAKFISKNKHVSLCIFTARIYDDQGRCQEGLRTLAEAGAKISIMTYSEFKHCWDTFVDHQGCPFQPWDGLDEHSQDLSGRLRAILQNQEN

[7] = molecular target: Beta-adrenergic receptor kinase 1 (Homo sapiens, UniProt P25098); assay: aptamer displacement from bead-bound GRK2 – biochemical, cherry pick 1, bead flow cytometry, dose response (AID 504500)
Chain of Beta-adrenergic receptor kinase 1 (P25098 whole entry): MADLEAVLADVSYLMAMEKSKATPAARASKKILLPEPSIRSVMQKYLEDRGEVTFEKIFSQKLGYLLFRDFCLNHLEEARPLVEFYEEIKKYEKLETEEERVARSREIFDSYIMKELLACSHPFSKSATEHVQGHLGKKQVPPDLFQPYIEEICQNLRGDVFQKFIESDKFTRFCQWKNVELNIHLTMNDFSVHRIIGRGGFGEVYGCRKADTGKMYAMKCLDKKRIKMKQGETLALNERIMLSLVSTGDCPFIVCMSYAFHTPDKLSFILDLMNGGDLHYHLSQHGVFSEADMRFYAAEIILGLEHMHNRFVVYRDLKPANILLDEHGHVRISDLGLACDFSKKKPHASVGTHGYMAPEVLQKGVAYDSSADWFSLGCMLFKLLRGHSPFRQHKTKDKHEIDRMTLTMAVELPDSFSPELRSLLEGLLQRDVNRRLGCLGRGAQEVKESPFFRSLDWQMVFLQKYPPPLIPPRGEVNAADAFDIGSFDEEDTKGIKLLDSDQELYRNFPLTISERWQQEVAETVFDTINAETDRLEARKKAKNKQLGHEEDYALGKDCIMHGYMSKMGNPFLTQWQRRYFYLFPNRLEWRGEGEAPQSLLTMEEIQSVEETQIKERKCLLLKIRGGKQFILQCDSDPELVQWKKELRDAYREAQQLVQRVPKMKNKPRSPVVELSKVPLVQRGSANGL

[8] = molecular target: T1, Apoptotic protease-activating factor 1 (Homo sapiens, UniProt O14727); assay: activation of Apaf-1 mediated apoptosis – fluorescent, uHTS hits, dose response (AID 588554); format: functional
T1 sequence (O14727 whole entry): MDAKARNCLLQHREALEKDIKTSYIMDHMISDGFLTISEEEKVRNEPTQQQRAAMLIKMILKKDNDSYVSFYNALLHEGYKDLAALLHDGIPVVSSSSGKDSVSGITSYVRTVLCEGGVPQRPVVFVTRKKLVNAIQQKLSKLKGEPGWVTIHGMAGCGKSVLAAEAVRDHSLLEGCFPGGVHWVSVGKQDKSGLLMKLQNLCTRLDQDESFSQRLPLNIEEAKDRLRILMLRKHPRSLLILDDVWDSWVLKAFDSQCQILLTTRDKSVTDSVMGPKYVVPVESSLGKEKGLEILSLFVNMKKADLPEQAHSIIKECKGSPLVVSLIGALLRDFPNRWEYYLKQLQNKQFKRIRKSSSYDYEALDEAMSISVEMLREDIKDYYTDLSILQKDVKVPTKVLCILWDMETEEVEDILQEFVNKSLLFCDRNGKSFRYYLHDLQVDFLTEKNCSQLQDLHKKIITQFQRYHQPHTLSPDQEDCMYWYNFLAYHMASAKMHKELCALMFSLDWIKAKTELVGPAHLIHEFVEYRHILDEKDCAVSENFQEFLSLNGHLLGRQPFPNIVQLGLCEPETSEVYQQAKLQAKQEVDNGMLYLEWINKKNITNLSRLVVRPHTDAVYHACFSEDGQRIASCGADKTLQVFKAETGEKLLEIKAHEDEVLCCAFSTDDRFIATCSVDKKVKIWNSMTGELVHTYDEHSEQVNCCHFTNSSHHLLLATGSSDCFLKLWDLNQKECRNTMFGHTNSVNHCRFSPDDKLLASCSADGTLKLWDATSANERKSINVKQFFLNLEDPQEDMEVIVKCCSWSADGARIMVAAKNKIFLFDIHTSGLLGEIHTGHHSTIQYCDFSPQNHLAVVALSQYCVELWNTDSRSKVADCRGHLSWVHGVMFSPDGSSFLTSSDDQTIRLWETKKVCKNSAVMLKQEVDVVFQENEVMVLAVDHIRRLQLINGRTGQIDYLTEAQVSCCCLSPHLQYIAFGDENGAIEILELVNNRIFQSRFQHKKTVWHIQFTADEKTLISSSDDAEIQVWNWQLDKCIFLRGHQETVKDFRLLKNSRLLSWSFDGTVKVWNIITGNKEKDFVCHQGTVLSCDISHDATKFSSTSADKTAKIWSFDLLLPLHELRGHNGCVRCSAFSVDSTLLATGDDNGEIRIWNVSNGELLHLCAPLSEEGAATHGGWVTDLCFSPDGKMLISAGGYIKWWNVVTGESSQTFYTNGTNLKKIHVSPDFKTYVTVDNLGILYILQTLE

[9] = molecular target: T2, Carboxy-terminal domain RNA polymerase II polypeptide A small phosphatase 1 (Homo sapiens, UniProt Q9GZU7); assay: inhibitors of CTDSP1, concentration-response testing, biochemical assay, absorbance-based, actives from ultra-high-throughput screening (AID 540297); format: functional
T2 sequence (Q9GZU7 whole entry): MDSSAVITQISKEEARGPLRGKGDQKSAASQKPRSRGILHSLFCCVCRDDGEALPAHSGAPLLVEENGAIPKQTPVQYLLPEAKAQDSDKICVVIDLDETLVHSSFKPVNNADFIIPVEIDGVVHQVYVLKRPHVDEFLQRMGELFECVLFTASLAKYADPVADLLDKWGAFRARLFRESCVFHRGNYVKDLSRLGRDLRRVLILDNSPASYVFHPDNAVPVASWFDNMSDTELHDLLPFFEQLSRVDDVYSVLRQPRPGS

[10] = molecular target: T3, Small ubiquitin-related modifier 1 (Homo sapiens, UniProt P63165); assay: inhibitors of SUMO1 peptide binding, dose response, biochemical, fluorescence polarization, uHTS hits (AID 624382); format: functional; details: read-out: IC50_Mean
T3 sequence (P63165 whole entry): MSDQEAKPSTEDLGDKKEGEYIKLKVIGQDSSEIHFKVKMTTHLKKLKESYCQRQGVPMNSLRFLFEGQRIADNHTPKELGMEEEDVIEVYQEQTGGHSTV

[11] = molecular target: T3, Small ubiquitin-related modifier 1; assay: inhibitors of SUMO1 partner interactions, dose response, biochemical, FRET (AID 624383); format: functional; details: read-out: IC50_Mean
[12] = blockers of SFLLRN-triggered platelet ATP secretion – cell-based, human platelets, luminescence, dry powder, dose response (AID 493100); format: functional
[13] = Luminescence Cell-Based Dose Response Follow up to Identify Inhibitors of Platelet Dense Granule Release. [Related pubchem assays (depositor defined):AID1663, AID1678, AID2398]; format: functional
[14] = molecular target: T4, Sentrin-specific protease 8 (Homo sapiens, UniProt Q96LD8); assay: SENP8 protease inhibitors, SAR follow-up, biochemical, luminescence (AID 504501); format: functional
T4 sequence (Q96LD8 whole entry): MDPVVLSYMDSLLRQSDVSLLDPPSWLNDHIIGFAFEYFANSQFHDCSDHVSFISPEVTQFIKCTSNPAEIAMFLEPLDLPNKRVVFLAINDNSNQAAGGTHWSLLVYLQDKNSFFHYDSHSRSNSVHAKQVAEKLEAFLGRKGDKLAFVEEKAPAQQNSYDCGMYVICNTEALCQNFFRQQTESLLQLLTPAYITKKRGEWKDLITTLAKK

Caspase-3 [15] = molecular target: T5, Caspase-3 (Homo sapiens, UniProt P42574); assay: caspase-3 inhibitors as off-family protease, SAR follow-up, selectivity assay for SENP protease inhibitor project, biochemical, luminescence, set 2 (AID 588599); format: functional
T5 sequence (P42574 whole entry): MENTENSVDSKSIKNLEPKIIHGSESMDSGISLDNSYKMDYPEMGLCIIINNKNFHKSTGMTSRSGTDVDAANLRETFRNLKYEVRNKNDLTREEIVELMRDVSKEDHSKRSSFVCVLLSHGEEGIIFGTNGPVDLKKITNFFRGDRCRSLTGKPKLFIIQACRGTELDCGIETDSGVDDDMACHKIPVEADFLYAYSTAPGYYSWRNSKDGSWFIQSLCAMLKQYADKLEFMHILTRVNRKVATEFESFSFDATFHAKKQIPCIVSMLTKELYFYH

[16] = molecular target: T4, Sentrin-specific protease 8; assay: SENP8 protease inhibitors, SAR follow-up, biochemical, luminescence, set 2 (AID 588601); format: functional
Caspase-3 [17] = molecular target: T5, Caspase-3; assay: SAR Analysis of small molecule inhibitors of Sentrin-specific proteases (SENPs) using a Caspase-3 Selectivity assay. [Related pubchem assays (depositor defined):AID2540, AID2599, AID434973, AID489001]; format: functional
[18] = molecular target: T6, Sentrin-specific protease 7 (Homo sapiens, UniProt Q9BQF6); assay: SENP7 protease inhibitors, SAR follow-up, biochemical, luminescence, set 2 (AID 588600); format: functional
T6 sequence (Q9BQF6 whole entry): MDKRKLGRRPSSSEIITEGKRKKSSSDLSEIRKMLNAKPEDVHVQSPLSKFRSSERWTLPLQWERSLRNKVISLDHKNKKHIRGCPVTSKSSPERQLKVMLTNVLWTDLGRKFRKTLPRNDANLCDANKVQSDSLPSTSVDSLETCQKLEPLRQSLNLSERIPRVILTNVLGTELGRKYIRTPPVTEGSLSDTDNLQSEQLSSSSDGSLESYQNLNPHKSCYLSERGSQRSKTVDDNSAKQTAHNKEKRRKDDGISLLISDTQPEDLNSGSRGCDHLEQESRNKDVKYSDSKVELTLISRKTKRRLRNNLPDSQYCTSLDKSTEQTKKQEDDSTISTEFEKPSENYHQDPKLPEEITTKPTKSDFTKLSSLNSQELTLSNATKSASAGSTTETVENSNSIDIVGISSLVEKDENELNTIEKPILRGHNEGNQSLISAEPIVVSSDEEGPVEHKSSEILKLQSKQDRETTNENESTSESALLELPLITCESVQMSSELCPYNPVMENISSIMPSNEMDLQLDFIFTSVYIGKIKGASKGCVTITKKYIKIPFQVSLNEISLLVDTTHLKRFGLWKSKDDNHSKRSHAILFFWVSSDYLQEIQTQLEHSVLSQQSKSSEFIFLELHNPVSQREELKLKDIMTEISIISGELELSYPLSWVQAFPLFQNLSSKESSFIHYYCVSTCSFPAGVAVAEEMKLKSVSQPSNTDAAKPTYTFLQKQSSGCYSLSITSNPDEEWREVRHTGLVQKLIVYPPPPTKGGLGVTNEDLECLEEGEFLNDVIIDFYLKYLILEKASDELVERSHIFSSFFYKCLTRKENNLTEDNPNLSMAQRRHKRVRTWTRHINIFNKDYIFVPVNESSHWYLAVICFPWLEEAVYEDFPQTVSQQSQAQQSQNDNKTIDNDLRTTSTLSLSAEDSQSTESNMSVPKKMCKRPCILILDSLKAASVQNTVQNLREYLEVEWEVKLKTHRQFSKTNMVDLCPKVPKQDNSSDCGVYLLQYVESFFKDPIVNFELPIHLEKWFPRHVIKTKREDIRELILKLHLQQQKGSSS

[19] = molecular target: T7, Sentrin-specific protease 6 (Homo sapiens, UniProt Q9GZR1); assay: SAR Analysis of small molecule inhibitors of Sentrin-specific protease 6 (SENP6) using a Luminescent assay. [Related pubchem assays (depositor defined):AID2582, AID2599]; format: functional
T7 sequence (Q9GZR1 whole entry): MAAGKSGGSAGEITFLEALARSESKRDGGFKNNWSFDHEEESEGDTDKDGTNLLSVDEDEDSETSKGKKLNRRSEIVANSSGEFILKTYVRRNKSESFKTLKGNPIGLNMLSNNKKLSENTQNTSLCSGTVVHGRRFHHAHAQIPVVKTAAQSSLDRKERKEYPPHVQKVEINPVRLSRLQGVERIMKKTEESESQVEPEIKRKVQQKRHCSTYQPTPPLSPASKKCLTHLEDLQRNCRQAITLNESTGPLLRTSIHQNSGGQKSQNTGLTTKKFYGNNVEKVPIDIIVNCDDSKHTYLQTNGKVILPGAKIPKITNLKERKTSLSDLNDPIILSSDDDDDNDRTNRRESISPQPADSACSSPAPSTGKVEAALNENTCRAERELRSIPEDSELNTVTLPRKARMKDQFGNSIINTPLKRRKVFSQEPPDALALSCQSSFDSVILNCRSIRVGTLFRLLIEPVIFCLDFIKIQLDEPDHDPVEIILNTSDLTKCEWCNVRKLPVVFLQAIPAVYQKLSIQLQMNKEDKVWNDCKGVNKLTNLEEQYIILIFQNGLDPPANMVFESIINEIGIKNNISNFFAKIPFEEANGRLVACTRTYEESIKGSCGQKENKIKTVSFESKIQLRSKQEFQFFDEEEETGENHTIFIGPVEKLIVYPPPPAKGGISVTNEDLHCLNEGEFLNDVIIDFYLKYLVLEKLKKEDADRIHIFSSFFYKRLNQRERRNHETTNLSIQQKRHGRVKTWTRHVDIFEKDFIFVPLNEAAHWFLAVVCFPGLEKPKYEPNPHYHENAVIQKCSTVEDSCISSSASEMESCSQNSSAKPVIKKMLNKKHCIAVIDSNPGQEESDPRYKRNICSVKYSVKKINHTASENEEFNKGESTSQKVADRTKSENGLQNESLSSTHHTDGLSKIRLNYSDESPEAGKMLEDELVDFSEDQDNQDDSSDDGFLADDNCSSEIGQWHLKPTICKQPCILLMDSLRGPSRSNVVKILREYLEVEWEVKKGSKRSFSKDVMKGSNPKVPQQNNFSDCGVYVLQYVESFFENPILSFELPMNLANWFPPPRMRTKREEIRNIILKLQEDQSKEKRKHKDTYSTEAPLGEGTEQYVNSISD

[20] = molecular target: T7, Sentrin-specific protease 6; assay: SENP6 protease inhibitors, SAR follow-up, biochemical, luminescence, set 2 (AID 588598); format: functional
[21] = molecular target: T6, Sentrin-specific protease 7; assay: SENP7 protease inhibitors, SAR follow-up, biochemical, luminescence (AID 504497); format: functional

Chain of Nonstructural protein 1 (Q194T2 whole entry): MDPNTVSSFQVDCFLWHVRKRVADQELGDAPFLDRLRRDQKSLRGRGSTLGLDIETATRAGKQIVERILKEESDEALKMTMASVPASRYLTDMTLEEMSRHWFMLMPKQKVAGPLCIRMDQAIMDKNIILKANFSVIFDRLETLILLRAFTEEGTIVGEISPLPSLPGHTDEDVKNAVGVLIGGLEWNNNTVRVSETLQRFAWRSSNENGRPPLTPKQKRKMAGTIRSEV

CCN(c1ccccc1)S(=O)(=O)c1ccc(C(=O)N(CCCN(C)C)c2nc3c(C)cccc3s2)cc1
IC50 (Nonstructural protein 1): > 100 µM (active)
IC50 (MDCK [1]): > 100 µM (active)
CC50 (Vero): 16 µM (active)
CC50 (MDCK [2]): 10.8 µM (active)
IC50 [3]: > 96.6 µM (inactive)

C=C(C)C(=O)Nc1cccc(C2=NOC3(C2)C[C@H](C(N)=O)N(C(=O)/C=C/C)C3)c1 (stereo partly drawn)
IC50 [4]: 3.48 µM (active)
IC50 [5]: > 100 µM (inactive)
IC50 [6]: 6.14 µM (active)
EC50 [7]: 21.3 µM (inactive)
EC50 [8]: 2.71 µM (active)
IC50 [9]: 1.61 µM (active)
IC50 [10]: > 66.6 µM (inactive)
IC50 [11]: 1.93 µM (active)

CCCCC(=O)N/N=C(\C)c1ccc(NC(=O)C(F)(F)F)cc1
AC50 [12]: 41.3 µM (active)
EC50 [13]: 5.49 µM (active)

COc1cc(/C=C/c2noc(-c3ccccc3O)n2)ccc1OCC(=O)O
IC50 [14]: > 99 µM (inactive)
IC50 (Caspase-3 [15]): 28.2 µM (active)
IC50 [16]: 46.3 µM (active)
IC50 (Caspase-3 [17]): 54 µM (active)
IC50 [18]: 72.3 µM (active)
IC50 [19]: > 99 µM (inactive)
IC50 [20]: 21.9 µM (active)
IC50 [21]: 18 µM (active)
